# Data from patent US20060287251A1, “Combination therapy for glycaemic control” (priority 2003, published 2006).
# What was measured:
# [1] = molecular target: T1, recombinant human prolyl oligopeptidase (Homo sapiens, UniProt P48147); experiment: Cross reacting enzymes: prolyl oligopeptidase; type: biochemical; conditions: concentration range 1*10^−4 M-5*10^−8 M
# T1 construct: made in house; host or cells: E. coli
# T1 sequence (P48147 1-710): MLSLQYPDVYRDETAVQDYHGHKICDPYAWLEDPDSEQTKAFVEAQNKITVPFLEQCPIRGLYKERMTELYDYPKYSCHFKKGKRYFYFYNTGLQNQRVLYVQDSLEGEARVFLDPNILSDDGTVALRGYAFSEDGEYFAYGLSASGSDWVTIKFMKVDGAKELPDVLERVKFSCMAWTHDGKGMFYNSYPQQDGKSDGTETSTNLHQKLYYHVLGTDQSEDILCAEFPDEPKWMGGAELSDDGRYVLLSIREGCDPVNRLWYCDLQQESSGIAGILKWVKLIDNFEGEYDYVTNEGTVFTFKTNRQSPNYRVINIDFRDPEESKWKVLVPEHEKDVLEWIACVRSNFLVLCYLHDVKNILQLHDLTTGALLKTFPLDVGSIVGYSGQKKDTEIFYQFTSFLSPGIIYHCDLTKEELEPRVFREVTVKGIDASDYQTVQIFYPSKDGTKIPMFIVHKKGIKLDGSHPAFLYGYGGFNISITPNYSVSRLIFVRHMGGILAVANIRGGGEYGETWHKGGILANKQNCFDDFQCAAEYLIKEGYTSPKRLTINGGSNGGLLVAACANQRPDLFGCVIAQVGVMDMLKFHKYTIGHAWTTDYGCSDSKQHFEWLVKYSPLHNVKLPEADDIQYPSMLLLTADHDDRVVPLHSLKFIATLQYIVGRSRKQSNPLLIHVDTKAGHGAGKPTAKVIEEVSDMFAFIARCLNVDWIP
# Method: Glutaminyl pyrrolidine or glutaminyl thiazolidine were tested for their cross reacting potency against dipeptidyl peptidase I, prolyl oligopeptidase and prolidase.
# Prolyl oligopeptidase (EC 3.4.21.26) is a serine type endoprotease which cleaves off peptides at the N-terminal part of the Xaa-Pro bond (Walter, R., Shlank, H., Glass, J. D., Schwartz, I. L. & Kerenyi, T. D., 1971, Science, 173, 827-829). Substrates are peptides with a molecular weight up to 3000 Da. The enzyme used was a recombinant human prolyl oligopeptidase. Recombinant expression was performed in E. coli under standard conditions as described elsewhere in the state of the art. 100 μL glutaminyl pyrrolidine or glutaminyl thiazolidine in an concentration range of 1*10^−4 M-5*10^−8 M were admixed with 100 μL buffer solution (40 mM HEPES, pH 7.6, 0.015% Brij, 1 mM DTT) and 20 μL POP solution. The assay mixture was pre-incubated at 30° C. for 15 min After pre-incubation, 50 μL glycylprolylprolyl-4-nitroaniline solution (0.29 mM) were added and measurement of yellow color development due to 4-nitroaniline release was performed at 30° C. and λ=405 nm for 10 min using a plate reader (sunrise, Tecan, Crailsheim, Germany). The IC 50-values were calculated using Graphit 4.0.15 (Erithacus Software, Ltd., UK). No inhibition of POP activity by glutaminyl pyrrolidine or glutaminyl thiazolidine was found.
# Plasma stability = type: in vitro ADME, human; conditions: 37 °C; for stability in human plasma: human plasma in vitro; for half-life of the inhibitory potency: human plasma, 5*10^−5, 2.5*10^−5, 1.25*10^−5 M
# Method: In order to investigate the stability of glutaminyl pyrrolidine or glutaminyl thiazolidine in human plasma, the activity of DPIV in plasma was determined at a defined time. The average DPIV activity in human plasma was determined as 43.69 U/mL. In the working solution, the plasma was diluted in 0.9% NaCl to fix the DPIV activity level at 25 U/mL. Plasma and glutaminyl pyrrolidine or glutaminyl thiazolidine in different concentrations (5*10^−5, 2.5*10^−5, 1.25*10^−5 M in plasma) were incubated at 37° C. At defined time points samples were taken using a pipette roboter (Gilson 215, Liquid handler, Gilson) and transferred in a microtiter plate containing 5*10^−5 M glycylprolylaminomethylcoumarine in 0.9% NaCl+015% Brij per well. After 6 min the reaction was stopped by addition of isoleucylthiazolidine (5*10^−5 M in 0.9% NaCl solution). Fluorescence measurement was performed against 0.9% NaCl in plasma (reference standard) using a plate reader (HTS7000 plus, Applied Biosystems, Weiterstadt, Germany). The half-life of the inhibitory potency of glutaminyl pyrrolidine or glutaminyl thiazolidine was calculated by plotting the enzyme activity versus reaction time.
smiles,measurement,setting,value
NC(=O)CC[C@H](N)C(=O)N1CCSC1 [glutaminyl thiazolidine],inhibition of POP activity,[1],No inhibition
same,stability in human plasma,Plasma stability,stable in human plasma over 22 hours
same,half-life of the inhibitory potency,Plasma stability,no half-time could be determined
NC(=O)CC[C@H](N)C(=O)N1CCCC1 [glutaminyl pyrrolidine],inhibition of POP activity,[1],No inhibition
same,stability in human plasma,Plasma stability,stable in human plasma over 22 hours
same,half-life of the inhibitory potency,Plasma stability,no half-time could be determined
